Series [1] deals with HIV-1 IIIB strain. Briefly: MT-4 HIV Wild Type Virus Infection Assay (IIIB Virus). It counts as cell-based. The following applies: Human immunodeficiency virus 1, IIIB, MT4, 120 h, MT-4 cells acutely infected with HIV-1 IIIB, 5 day incubation, Cell-titer glo. The procedure, abridged: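 MT-4 cells at 2×10^6 cells/ml in RPMI/10% FBS were acutely infected with HIV-1 IIIB for 1 h at 37° C, diluted 25× and added to serially diluted compounds. After 5 days at 37° C, viability read by CellTiter-Glo luminescence; EC50 from dose-response curves.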

For series [2], the target named is bovine intestinal alkaline phosphatase (Bos taurus (Bovine), UniProt P19111). Kind of series: BiALP: conversion by bovine intestinal alkaline phosphatase. It counts as in vitro ADME. As to conditions: 2 μM substrate, 100 ng/mL iALP, Tris pH 7.8, 37° C., 60 minutes. The procedure, abridged:
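Compounds at 2 μM final were incubated 60 min at 37° C in 0.1 M Tris-HCl pH 7.8 with 1 mM MgCl2 and 1 mM ZnCl2, with or without 100 ng/mL iALP (0.01 units/mL). Samples were quenched with acetonitrile/formic acid containing labetalol. Conversion was quantified by LC-MS peak area ratios against a 2 μM product standard.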

Series [3] in a line: Intestinal S9 Assay (human GI S9). It counts as in vitro ADME. As to conditions: 1.0 mg/mL S9 protein; for Human GI S9 T½: 2 μM, TRIS pH 7.4; for half-life at 2 μM: human, TRIS pH 7.4, read-out: Human GI S9 T½. As for the experimental part: (§1) Reagents. Stock solutions of test compounds in dimethyl sulfoxide (DMSO) having a final concentration of 10 mM were prepared and used in all experiments. Sekisui XenoTech (Kansas City, KS) provided pooled intestinal S9 fractions. All other chemicals were purchased from Sigma-Aldrich (St. Louis, MO) or VWR (West Chester, PA). Internal Standard/Quench (IS/Q) used to stop reactions was 100 nM labetalol in (by volume) formic acid (1%) and acetonitrile (99%).
(§2) Intestinal S9 Assay: For each test compound, an aliquot of the test compound was added to S9 stock diluted with TRIS buffer (100 mM TRIS, 1 mM ZnCl2, 1 mM MgCl2), pH 7.4, to obtain an incubation protein concentration of 1.0 mg/mL. The incubation was initiated by the addition of the substrate to the S9 reaction mixture to a final concentration of 2 μM. At 0, 10, 20, 30, 60 and 120 min, 25 μL aliquots of the reaction mixture were transferred to plates containing 225 μl of IS/Q solution. After quenching, the plates were centrifuged at 3000×g for 30 minutes. 150 μL aliquots of each supernatant were transferred to new plates and 150 μL water was added. Aliquots (10 μL) of the prepared samples were analyzed on a Thermo Q-Exactive mass spectrometer as described below.
(§3) Liquid Chromatography-Mass Spectrometry: Quantification of test compounds and control substrate was performed by analyte/internal standard peak area ratio (PAR) values measured on a Thermo Q-Exactive mass spectrometer coupled to a Dionex UltiMate 3000 HPLC with a Leap Technologies HTC PAL autosampler. The column used for analysis was a Thermo Scientific Hypersil GOLD (1.9 μm particle size, 50×2.1 mm). Mobile phase A consisted of 0.1% (v/v) formic acid in water. Mobile phase B consisted of 0.1% (v/v) formic acid in acetonitrile. Elution of analytes was achieved by a series of linear gradients varying the proportions of A and B. The mass spectrometer was calibrated on a weekly basis and mass tolerance of 5 ppm was used.
(§4) Data Analysis. Metabolic stabilities were determined by measuring the rates of disappearance of test compound and positive control substrate. Data (% of substrate remaining) were plotted on a semi-log scale and fitted using an exponential decline model:
(§5) where • Ct% of substrate remaining at time=t • C0% of substrate remaining at time=0 • t time • T½ half-life • The Half-life (T½) is determined by the following equation:
(§6) [formula] • Assuming a first-order reaction, the slope (k) is extrapolated from the aforementioned plotted data.

Series [4] can be described thus: Intestinal S9 Assay (dog GI S9). It counts as in vitro ADME. The following applies: dog, 1.0 mg/mL S9 protein, TRIS pH 7.4, read-out: Dog GI S9 T½. Here is the method: as §1, §2, §3, §4, §5, §6
The nature of series [5]: Solubility in FaSSIF. The following applies: 23 °C, pH 6.5, fassif, thermodynamic from solid. The procedure, abridged: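 Concentration measured by HPLC-UV after solid compound was dosed at 5 mg/mL into pH 6.5 fasted-state simulated intestinal fluid containing taurocholate and lecithin (4:1 molar) and vortexed.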

The structures appear in SMILES notation. pEC50: −log10 of the molar value. ≈ marks a conversion by molar mass, not a printed value. Where two headings read alike, the source gives them in different places. Some results are limits rather than exact numbers.

For orientation: pEC50 means −log10 of the EC50, conventionally taken in molar units. The solubility is the concentration that dissolves in the medium under given conditions. Low readings indicate little dissolved substance, high ones much dissolved substance.

Sequence of bovine intestinal alkaline phosphatase (P19111 20-506): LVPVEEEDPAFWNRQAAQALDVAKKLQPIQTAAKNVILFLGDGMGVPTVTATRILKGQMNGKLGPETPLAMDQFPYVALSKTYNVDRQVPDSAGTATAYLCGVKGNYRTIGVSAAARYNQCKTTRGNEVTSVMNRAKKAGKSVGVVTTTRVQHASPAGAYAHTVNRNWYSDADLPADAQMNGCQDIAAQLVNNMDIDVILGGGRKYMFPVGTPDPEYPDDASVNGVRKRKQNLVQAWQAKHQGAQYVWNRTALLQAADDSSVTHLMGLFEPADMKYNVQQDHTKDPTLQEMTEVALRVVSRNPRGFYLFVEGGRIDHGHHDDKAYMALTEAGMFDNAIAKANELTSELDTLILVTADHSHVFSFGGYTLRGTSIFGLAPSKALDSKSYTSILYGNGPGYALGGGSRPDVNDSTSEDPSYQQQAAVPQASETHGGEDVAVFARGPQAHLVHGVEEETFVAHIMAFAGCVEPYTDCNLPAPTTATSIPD

`COC(=O)N[C@H](C(=O)N[C@@H](Cc1ccc(C#Cc2cnc(N3CC4CCC(C3)N4C3COC3)nc2)cc1)[C@H](CN(Cc1c(F)cc(-c2ccn(C(F)F)n2)cc1F)NC(=O)[C@@H](NC(=O)OC)C(C)(C)C(F)(F)F)OC(=O)CC(C)(C)c1c(CC(=O)N2C[C@H](OC)C[C@H]2C(=O)O)cc(C)cc1OP(=O)(O)O)C(C)(C)C(F)(F)F` [Example 59] showed a pEC50 in series [1] of 6.18. Moreover, the “[Compound]” value in series [2] is recorded as 1520.4 nM. Besides, in series [3], the “Human GI S9 T½” value amounted to 13.2 h. Moreover, in series [4], the half-life at 2 μM worked out at 6.67 h. The same compound yielded a solubility at 2 h in series [5] of 3600 µg/mL (≈ 2230 µM).

Turning to `C=C1C[C@@H](C(=O)O)N(C(=O)Cc2cc(C)cc(OP(=O)(O)O)c2C(C)(C)CC(=O)O[C@@H](CN(Cc2c(F)cc(-c3ccn(C(F)F)n3)cc2F)NC(=O)[C@@H](NC(=O)OC)C(C)(C)C(F)(F)F)[C@H](Cc2ccc(C#Cc3cnc(N4CC5CCC(C4)N5C4COC4)nc3)cc2)NC(=O)[C@@H](NC(=O)OC)C(C)(C)C(F)(F)F)C1` [Example 60], the pEC50 in series [1] (read-out: EC50) is 6.66. Also, the “[Compound]” value in series [2] came out at 1457.7 nM. Moreover, the half-life at 2 μM in series [3] was determined as 12 h; in series [4], 5.81 h. Besides, the solubility in series [5] (FaSSIF (pH 6.5) solubility, FaSSIF pH 6.5, dose 5 mg/mL, 2-hour incubation, ambient temperature) was 3480 µg/mL (≈ 2190 µM).

Take `COC(=O)N[C@H](C(=O)N[C@@H](Cc1ccc(C#Cc2cnc(N3CC4CCC(C3)N4C3COC3)nc2)cc1)[C@H](CN(Cc1c(F)cc(-c2ccn(C(F)F)n2)cc1F)NC(=O)[C@@H](NC(=O)OC)C(C)(C)C(F)(F)F)OC(=O)CC(C)(C)c1c(CC(=O)N2CC(C)(C)C[C@H]2C(=O)O)cc(C)cc1OP(=O)(O)O)C(C)(C)C(F)(F)F` [Example 61]: the pEC50 in series [1] was 5.72. The “[Compound]” value in series [2] is 1611.1 nM. Moreover, the figures for the half-life at 2 μM in series [3] and in series [4] were 11.7 h and 11.2 h, respectively. Moreover, the concentration in solution in series [5] (solubility at 2 h) was 2580 µg/mL (≈ 1600 µM).

Turning to `COC(=O)N[C@H](C(=O)N[C@@H](Cc1ccc(C#Cc2cnc(N3CC4CCC(C3)N4C3COC3)nc2)cc1)[C@H](CN(Cc1c(F)cc(-c2ccn(C(F)F)n2)cc1F)NC(=O)[C@@H](NC(=O)OC)C(C)(C)C(F)(F)F)OC(=O)CC(C)(C)c1c(CC(=O)Nc2cc(C#N)cc(C(=O)O)c2)cc(C)cc1OP(=O)(O)O)C(C)(C)C(F)(F)F` [Example 63], in series [1], the pEC50 is 6.61. In addition, in series [2], the “[Compound]” value was 1778.4 nM. In series [3], the “Human GI S9 T½” value came to 13.2 h. The half-life at 2 μM in series [4] came out at 6.37 h. The same compound had a solubility at 2 h in series [5] of 495 µg/mL (≈ 304 µM).

For `COC(=O)N[C@H](C(=O)N[C@@H](Cc1ccc(C#Cc2cnc(N3CC4CCC(C3)N4C3COC3)nc2)cc1)[C@H](CN(Cc1c(F)cc(-c2ccn(C(F)F)n2)cc1F)NC(=O)[C@@H](NC(=O)OC)C(C)(C)C(F)(F)F)OC(=O)CC(C)(C)c1c(CC(=O)N2CCC[C@H]2C(=O)O)cc(C)cc1OP(=O)(O)O)C(C)(C)C(F)(F)F` [Example 79], in series [1], the pEC50 was 6.19. Moreover, the “[Compound]” value in series [2] stood at 2057.5 nM. The half-life at 2 μM in series [3] is 10.2 h; in series [4], 9.38 h. For the same compound, in series [5], the concentration in solution (solubility at 2 h) was 2680 µg/mL (≈ 1690 µM).

Compound `COC(=O)N[C@H](C(=O)N[C@@H](Cc1ccc(C#Cc2cnc(N3CC4CCC(C3)N4C3COC3)nc2)cc1)[C@H](CN(Cc1c(F)cc(-c2ccn(C(F)F)n2)cc1F)NC(=O)[C@@H](NC(=O)OC)C(C)(C)C(F)(F)F)OC(=O)CC(C)(C)c1c(CC(=O)NC23CC4CC(C2)CC(C(=O)O)(C4)C3)cc(C)cc1OP(=O)(O)O)C(C)(C)C(F)(F)F` [Example 108] showed a negative logarithm of the EC50 (pEC50) in series [1] of 6.35. Also, the “[Compound]” value in series [2] worked out at 2296.1 nM. Moreover, the figures for the half-life at 2 μM in series [3] and in series [4] were 7.21 h and 4.46 h, respectively. Besides, the solubility at 2 h in series [5] was under 1000 µg/mL.

With `COC(=O)N[C@H](C(=O)N[C@@H](Cc1ccc(C#Cc2cnc(N3CC4CCC(C3)N4C3COC3)nc2)cc1)[C@H](CN(Cc1c(F)cc(-c2ccn(C(F)F)n2)cc1F)NC(=O)[C@@H](NC(=O)OC)C(C)(C)C(F)(F)F)OC(=O)CC(C)(C)c1c(CC(=O)Nc2cc(C(=O)O)cc(S(C)(=O)=O)c2)cc(C)cc1OP(=O)(O)O)C(C)(C)C(F)(F)F` [Example 109], in series [1], the pEC50 is 7.04. In series [2], the “[Compound]” value stood at 1951.1 nM. Besides, the values for the half-life at 2 μM in series [3] and in series [4] were 4.48 h and 2.23 h, respectively. The solubility at 2 h in series [5] is under 1000 µg/mL.

The compound `COC(=O)N[C@H](C(=O)N[C@@H](Cc1ccc(C#Cc2cnc(N3CC4CCC(C3)N4C3COC3)nc2)cc1)[C@H](CN(Cc1c(F)cc(-c2ccn(C(F)F)n2)cc1F)NC(=O)[C@@H](NC(=O)OC)C(C)(C)C(F)(F)F)OC(=O)CC(C)(C)c1c(CC(=O)N2CC(C(=O)O)C2)cc(C)cc1OP(=O)(O)O)C(C)(C)C(F)(F)F` [Example 110] showed a pEC50 in series [1] of 6.86. Further, the “[Compound]” value in series [2] came to 1852.3 nM. The half-life at 2 μM in series [3] is 8.51 h; in series [4] it was 2.81 h. The same compound registered a solubility at 2 h in series [5] of 4420 µg/mL (≈ 2820 µM).

`COC(=O)N[C@H](C(=O)N[C@@H](Cc1ccc(C#Cc2cnc(N3CC4CCC(C3)N4C3COC3)nc2)cc1)[C@H](CN(Cc1c(F)cc(-c2ccn(C(F)F)n2)cc1F)NC(=O)[C@@H](NC(=O)OC)C(C)(C)C(F)(F)F)OC(=O)CC(C)(C)c1c(CC(=O)N2CCC[C@@H]2C(=O)O)cc(C)cc1OP(=O)(O)O)C(C)(C)C(F)(F)F` [Example 111] gave a pEC50 in series [1] of 6.35. Further, in series [2], the “[Compound]” value was 1803.5 nM. Also, the half-life at 2 μM in series [3] amounted to 10.3 h; in series [4], 1.64 h. The solubility at 2 h in series [5] is 4760 µg/mL (≈ 3010 µM).

Turning to `COC(=O)N[C@H](C(=O)N[C@@H](Cc1ccc(C#Cc2cnc(N3CC4CCC(C3)N4C3COC3)nc2)cc1)[C@H](CN(Cc1c(F)cc(-c2ccn(C(F)F)n2)cc1F)NC(=O)[C@@H](NC(=O)OC)C(C)(C)C(F)(F)F)OC(=O)CC(C)(C)c1c(CC(=O)N2CCC(C(=O)O)CC2C(=O)O)cc(C)cc1OP(=O)(O)O)C(C)(C)C(F)(F)F` (some centres unmarked) [Example 113], the pEC50 in series [1] is 6.47. Also, the “[Compound]” value in series [2] amounted to 1948 nM. The half-life at 2 μM was determined as 6.56 h in series [3] and 3.38 h in series [4]. The compound also gave a solubility at 2 h in series [5] of 4140 µg/mL (≈ 2530 µM).
